Measurements from patent US20250382344A1, “Soluble GLP1/GIP/NPY2 Receptor Triple Agonists” (Boehringer Ingelheim International GmH, priority 2024, published 2025).
Read-outs that look alike come from different tables or passages of the source.

How the values were obtained:
hGIPR = biological target: T1, hGIPR (Homo sapiens, UniProt P48546); test: hGIPR CreLuc assay in 0.5% and 100% plasma (CHO CRE-luciferase reporter cells); assay type: cell-based
T1 construct: expressed in transfected cells; host or cells: CHO CRE-luciferase reporter cells
T1 sequence (P48546 22-466): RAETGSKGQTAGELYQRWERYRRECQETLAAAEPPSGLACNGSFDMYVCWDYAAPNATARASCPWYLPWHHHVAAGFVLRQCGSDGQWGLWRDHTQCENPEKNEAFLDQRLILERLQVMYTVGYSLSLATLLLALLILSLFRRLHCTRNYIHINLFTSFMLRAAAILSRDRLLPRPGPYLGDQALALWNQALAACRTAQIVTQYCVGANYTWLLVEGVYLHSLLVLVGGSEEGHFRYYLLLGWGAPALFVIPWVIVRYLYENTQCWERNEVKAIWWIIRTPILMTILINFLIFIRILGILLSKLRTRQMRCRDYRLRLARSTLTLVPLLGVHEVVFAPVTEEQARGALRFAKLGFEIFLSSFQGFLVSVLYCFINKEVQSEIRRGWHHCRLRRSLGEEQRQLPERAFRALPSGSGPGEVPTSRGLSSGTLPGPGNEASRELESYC
From the text: CHO and HEK-293 recombinant cell lines express a luciferase reporter gene under control of the CAMP responsive element (CRE). As a second recombinant protein the GLP-1 and NPY2 receptors were expressed in the reporter gene HEK cells, and the GIP receptor was expressed in the reporter gene CHO cells, respectively. Stimulation of these recombinant cells with an agonist leads to an increase of intracellular CAMP levels. In the presence of CAMP, the transcription factor CRE binding protein (CREB) binds to the CRE and to the CREB binding protein (CBP), which leads to transcription of the luciferase reporter gene. Peptides upon serial-dilution in 100% DMSO were transferred into 384-well assay plates with 5 μl pre-dispensed assay buffer (1×HBSS, 20 mM HEPES, pH7.4 supplemented with 0.5% human plasma) using acoustic dispensing on a Labcyte ECHO. Cryo-preserved transgenic reporter gene cells were thawed in assay buffer. 20 μl (10.000 cells/well) were added to the plate with the peptides and incubated for 4 hours at 37° C. in a humidified incubator. Following incubation, assay plates are equilibrated to room temperature, followed by addition of 25 μl of Bright-Glo™ Luciferase reagent, incubation at room temperature for 10 minutes and analysis of luminescence (Envision Reader). […] EC50 values were calculated by non-linear regression using sigmoid concentration-response with variable slope.
The same assays were run in the presence of 100% plasma with no additional buffer constituents.

[1] = Solubility in 0.1 M phosphate buffer at pH 7; assay type: physicochemical; details: 0.1 M phosphate buffer at pH 7, 10 mg/mL final peptide concentration, shaking 2 hours at room temperature, peptides as TFA-salts, measured sample pH 6.5-7.0
[2] = 0.5% human plasma, read-out: hGIPR 0.5% hP
[3] = 100% human plasma, read-out: hGIPR 100% hP

EC50 (hGIPR; [2])	EC50 (hGIPR; [3])	solubility at 2 h [1]	solubility ([1]; read-out: Solubility)	SMILES
0.5 nM	11.5 nM	4300 µg/mL	–	CC[C@H](C)[C@H](NC(=O)[C@H](CC(C)C)NC(=O)[C@H](Cc1c[nH]cn1)NC(=O)[C@H](CCCNC(=N)N)NC(=O)[C@@H](NC(=O)[C@H](Cc1ccccc1)NC(=O)[C@H](C)NC(=O)C(C)(C)NC(=O)[C@H](CCC(N)=O)NC(=O)[C@H](C)NC(=O)[C@H](CCC(N)=O)NC(=O)[C@H](CCCCN)NC(=O)[C@H](CCC(=O)O)NC(=O)[C@H](CC(C)C)NC(=O)C(C)(C)NC(=O)[C@@H](NC(=O)[C@H](CO)NC(=O)[C@H](Cc1ccc(O)cc1)NC(=O)[C@H](CC(=O)O)NC(=O)[C@H](CO)NC(=O)[C@@H](NC(=O)[C@H](Cc1ccccc1)NC(=O)[C@@H](NC(=O)CNC(=O)[C@H](CCC(=O)O)NC(=O)C(C)(C)NC(=O)[C@@H](N)Cc1ccc(O)cc1)[C@@H](C)O)[C@@H](C)O)[C@@H](C)CC)C(C)C)C(=O)N[C@@H](CC(N)=O)C(=O)N[C@@H](CCCCNC(=O)[C@@H](N)CCCCNC(=O)CC[C@H](NC(=O)CC[C@H](NC(=O)CC[C@H](NC(=O)CC[C@H](NC(=O)CC[C@H](NC(=O)CC[C@H](NC(=O)[C@H]1CC[C@H](CNC(=O)CCCCCCCCCCCCCCCCC(=O)O)CC1)C(=O)O)C(=O)O)C(=O)O)C(=O)O)C(=O)O)C(=O)O)C(=O)NC(C)(C)C(=O)N[C@H](C(=O)N[C@@H](CCCNC(=N)N)C(=O)N[C@@H](CCC(N)=O)C(=O)N[C@@H](CCCNC(=N)N)C(=O)N[C@@H](Cc1ccc(O)cc1)C(N)=O)[C@@H](C)O [Compound 137, Y-Aib-E-G-T-F-T-S-D-Y-S-I-Aib-L-E-K-Q-A-Q-Aib-A-F-V-R-H-L-I-N-K(1,3)-Aib-T-R-Q-R-Y-NH2.C18DA-TRX-gGlu-gGlu-gGlu-gGlu-gGlu-gGlu-eLys(1,2)]
0.2 nM	–	5000 µg/mL	–	CC[C@H](C)[C@H](NC(=O)[C@H](CC(C)C)NC(=O)[C@H](Cc1c[nH]cn1)NC(=O)[C@H](CCCNC(=N)N)NC(=O)[C@@H](NC(=O)[C@H](Cc1ccccc1)NC(=O)[C@H](C)NC(=O)C(C)(C)NC(=O)[C@H](CCC(N)=O)NC(=O)[C@H](C)NC(=O)[C@H](CCC(N)=O)NC(=O)[C@H](CCCCN)NC(=O)[C@H](CCC(=O)O)NC(=O)[C@H](CC(C)C)NC(=O)C(C)(C)NC(=O)[C@@H](NC(=O)[C@H](CO)NC(=O)[C@H](Cc1ccc(O)cc1)NC(=O)[C@H](CC(=O)O)NC(=O)[C@H](CO)NC(=O)[C@@H](NC(=O)[C@H](Cc1ccccc1)NC(=O)[C@@H](NC(=O)CNC(=O)[C@H](CCC(=O)O)NC(=O)C(C)(C)NC(=O)[C@@H](N)Cc1ccc(O)cc1)[C@@H](C)O)[C@@H](C)O)[C@@H](C)CC)C(C)C)C(=O)N[C@@H](CC(N)=O)C(=O)N[C@@H](CCCCNC(=O)[C@@H](N)CCCCNC(=O)CC[C@H](NC(=O)CC[C@H](NC(=O)CC[C@H](NC(=O)CC[C@H](NC(=O)CC[C@H](NC(=O)CC[C@H](NC(=O)CCCCCCCCCCCCCCCCC(=O)O)C(=O)O)C(=O)O)C(=O)O)C(=O)O)C(=O)O)C(=O)O)C(=O)N[C@H](C(=O)N[C@H](C(=O)N[C@@H](CCCNC(=N)N)C(=O)N[C@@H](CCC(N)=O)C(=O)N[C@@H](CCCNC(=N)N)C(=O)N[C@@H](Cc1ccc(O)cc1)C(N)=O)[C@@H](C)O)[C@@H](C)CC [Compound 66, Y-Aib-E-G-T-F-T-S-D-Y-S-I-Aib-L-E-K-Q-A-Q-Aib-A-F-V-R-H-L-I-N-K(1,3)-I-T-R-Q-R-Y-NH2.C18DA-gGlu-gGlu-gGlu-gGlu-gGlu-gGlu-eLys(1,2)]
0.4 nM	–	4300 µg/mL	–	CC[C@H](C)[C@H](NC(=O)[C@H](CC(C)C)NC(=O)[C@H](Cc1c[nH]cn1)NC(=O)[C@H](CCCNC(=N)N)NC(=O)[C@@H](NC(=O)[C@H](Cc1ccccc1)NC(=O)[C@H](CO)NC(=O)C(C)(C)NC(=O)[C@H](CCC(N)=O)NC(=O)[C@H](C)NC(=O)[C@H](CCC(N)=O)NC(=O)[C@H](CCCCN)NC(=O)[C@H](CCC(=O)O)NC(=O)[C@H](CC(C)C)NC(=O)C(C)(C)NC(=O)[C@@H](NC(=O)[C@H](CO)NC(=O)[C@H](Cc1ccc(O)cc1)NC(=O)[C@H](CC(=O)O)NC(=O)[C@H](CO)NC(=O)[C@@H](NC(=O)[C@H](Cc1ccccc1)NC(=O)[C@@H](NC(=O)CNC(=O)[C@H](CCC(=O)O)NC(=O)C(C)(C)NC(=O)[C@@H](N)Cc1ccc(O)cc1)[C@@H](C)O)[C@@H](C)O)[C@@H](C)CC)C(C)C)C(=O)N[C@@H](CC(N)=O)C(=O)N[C@@H](CCCCNC(=O)[C@@H](N)CCCCNC(=O)CC[C@H](NC(=O)CC[C@H](NC(=O)CC[C@H](NC(=O)CC[C@H](NC(=O)CC[C@H](NC(=O)CC[C@H](NC(=O)CCCCCCCCCCCCCCCCC(=O)O)C(=O)O)C(=O)O)C(=O)O)C(=O)O)C(=O)O)C(=O)O)C(=O)NC(C)(C)C(=O)N[C@H](C(=O)N[C@@H](CCCNC(=N)N)C(=O)N[C@@H](CCC(N)=O)C(=O)N[C@@H](CCCNC(=N)N)C(=O)N[C@@H](Cc1ccc(O)cc1)C(N)=O)[C@@H](C)O [Compound 144, Y-Aib-E-G-T-F-T-S-D-Y-S-I-Aib-L-E-K-Q-A-Q-Aib-S-F-V-R-H-L-I-N-K(1,3)-Aib-T-R-Q-R-Y-NH2.C18DA-gGlu-gGlu-gGlu-gGlu-gGlu-gGlu-eLys(1,2)]
0.3 nM	5.6 nM	–	9400 µg/mL	CC[C@H](C)[C@H](NC(=O)[C@H](CC(C)C)NC(=O)[C@H](Cc1c[nH]cn1)NC(=O)[C@H](CCCNC(=N)N)NC(=O)[C@@H](NC(=O)[C@H](Cc1ccccc1)NC(=O)[C@H](C)NC(=O)C(C)(C)NC(=O)[C@H](CCC(N)=O)NC(=O)[C@H](C)NC(=O)[C@H](CCC(N)=O)NC(=O)[C@H](CCCCN)NC(=O)[C@H](CCC(=O)O)NC(=O)[C@H](CC(C)C)NC(=O)C(C)(C)NC(=O)[C@@H](NC(=O)[C@H](CO)NC(=O)[C@H](Cc1ccc(O)cc1)NC(=O)[C@H](CC(=O)O)NC(=O)[C@H](CO)NC(=O)[C@@H](NC(=O)[C@H](Cc1ccccc1)NC(=O)[C@@H](NC(=O)CNC(=O)[C@H](CCC(=O)O)NC(=O)C(C)(C)NC(=O)[C@@H](N)Cc1ccc(O)cc1)[C@@H](C)O)[C@@H](C)O)[C@@H](C)CC)C(C)C)C(=O)N[C@@H](CC(N)=O)C(=O)N[C@@H](CCCCNC(=O)[C@@H](N)CCCCNC(=O)CC[C@H](NC(=O)CC[C@H](NC(=O)CC[C@H](NC(=O)CC[C@H](NC(=O)CC[C@H](NC(=O)CC[C@H](NC(=O)CCCCCCCCCCCCCCCCCCC(=O)O)C(=O)O)C(=O)O)C(=O)O)C(=O)O)C(=O)O)C(=O)O)C(=O)NC(C)(C)C(=O)N[C@H](C(=O)N[C@@H](CCCNC(=N)N)C(=O)N(C)[C@@H](CCC(N)=O)C(=O)N[C@@H](CCCNC(=N)N)C(=O)N[C@@H](Cc1ccc(O)cc1)C(N)=O)[C@@H](C)O [Compound 26, Y-Aib-E-G-T-F-T-S-D-Y-S-I-Aib-L-E-K-Q-A-Q-Aib-A-F-V-R-H-L-I-N-K(1,3)-Aib-T-R-NMeQ-R-Y-NH2.C20DA-gGlu-gGlu-gGlu-gGlu-gGlu-gGlu-eLys(1,2)]
0.4 nM	–	2100 µg/mL	–	CC[C@H](C)[C@H](NC(=O)[C@H](CC(C)C)NC(=O)[C@H](Cc1c[nH]cn1)NC(=O)[C@H](CCCNC(=N)N)NC(=O)[C@@H](NC(=O)[C@H](Cc1ccccc1)NC(=O)[C@H](C)NC(=O)C(C)(C)NC(=O)[C@H](CCC(N)=O)NC(=O)[C@H](C)NC(=O)[C@H](CCC(N)=O)NC(=O)[C@H](CCCCN)NC(=O)[C@H](CCC(=O)O)NC(=O)[C@H](CC(C)C)NC(=O)C(C)(C)NC(=O)[C@@H](NC(=O)[C@H](CO)NC(=O)[C@H](Cc1ccc(O)cc1)NC(=O)[C@H](CC(=O)O)NC(=O)[C@H](CO)NC(=O)[C@@H](NC(=O)[C@H](Cc1ccccc1)NC(=O)[C@@H](NC(=O)CNC(=O)[C@H](CCC(=O)O)NC(=O)C(C)(C)NC(=O)[C@@H](N)Cc1ccc(O)cc1)[C@@H](C)O)[C@@H](C)O)[C@@H](C)CC)C(C)C)C(=O)N[C@@H](CC(N)=O)C(=O)N[C@@H](CCCCNC(=O)[C@@H](N)CCCCNC(=O)CC[C@H](NC(=O)CC[C@H](NC(=O)CC[C@H](NC(=O)CC[C@H](NC(=O)CC[C@H](NC(=O)CCCCCCCCCCCCCCCCCCC(=O)O)C(=O)O)C(=O)O)C(=O)O)C(=O)O)C(=O)O)C(=O)NC(C)(C)C(=O)N[C@H](C(=O)N[C@@H](CCCNC(=N)N)C(=O)N[C@@H](CCC(N)=O)C(=O)N[C@@H](CCCNC(=N)N)C(=O)N[C@@H](Cc1ccc(O)cc1)C(N)=O)[C@@H](C)O [Compound 59, Y-Aib-E-G-T-F-T-S-D-Y-S-I-Aib-L-E-K-Q-A-Q-Aib-A-F-V-R-H-L-I-N-K(1,3)-Aib-T-R-Q-R-Y-NH2.C20DA-gGlu-gGlu-gGlu-gGlu-gGlu-eLys(1,2)]
